Experimental data as given in the supplement of paper PMC11061612.

How the values were obtained:
Experiment in all cases: Bliss excess, mean over the matrix (fraction); higher = more synergy
[1] = test system: A4-Fuk (B-Lymphoblastic Leukemia)
Summary of the method: (§1)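 Cell lines grown in DMEM/F12 or RPMI with 10% FBS were plated in 1536-well plates and held 24 hours at 37°C, 5% CO2 before 72 hours of exposure to two-drug dose matrices, with DMSO typically at 0.2%. CellTiter-Glo 2.0 luminescence gave viability, which was converted to inhibition. Vehicle wells were set to 0 and blank wells to 1. Combination Emax is the second-highest inhibition in the matrix, and Bliss excess is the observed combination effect minus the expected EA + EB − EA·EB, where EA and EB are the single-agent effects.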

[2] = test system: Mo-T (Other Blood Carcinomas)
Summary of the method: as §1

[3] = test system: ML-2 (Acute Myeloid Leukemia)
Summary of the method: as §1

[4] = test system: MOLT-4 (T-Lymphoblastic Leukemia)
Summary of the method: as §1

Hey (Ovarian Carcinoma) = test system: Hey (Ovarian Carcinoma)
Summary of the method: as §1

[5] = test system: NCI-H1993 (Lung Adenocarcinoma)
Summary of the method: as §1

[6] = test system: KMRC-1 (Kidney Carcinoma)
Summary of the method: as §1

[7] = test system: HCC2998 (Colorectal Carcinoma)
Summary of the method: as §1

[8] = test system: CADO-ES1 (Ewing's Sarcoma)
Summary of the method: as §1

[9] = test system: G-401 (Other Solid Carcinomas)
Summary of the method: as §1

[10] = test system: NCI-H1355 (Lung Adenocarcinoma)
Summary of the method: as §1

[11] = test system: HCC1500 (Breast Carcinoma)
Summary of the method: as §1

[12] = test system: NCI-H650 (Lung Adenocarcinoma)
Summary of the method: as §1

[13] = test system: MV-4-11 (Acute Myeloid Leukemia)
Summary of the method: as §1

[14] = test system: NCI-H1838 (Lung Adenocarcinoma)
Summary of the method: as §1

[15] = test system: NCI-H522 (Lung Adenocarcinoma)
Summary of the method: as §1

[16] = test system: NCI-H2122 (Lung Adenocarcinoma)
Summary of the method: as §1

[17] = test system: OACM5-1 (Esophageal Adenocarcinoma)
Summary of the method: as §1

[18] = test system: SKN (Other Solid Carcinomas)
Summary of the method: as §1

[19] = test system: ALL-SIL (T-Lymphoblastic Leukemia)
Summary of the method: as §1

| Structure (SMILES) | Bliss excess [1] | Bliss excess [2] | Bliss excess [3] | Bliss excess [4] | Bliss excess (Hey (Ovarian Carcinoma)) | Bliss excess [5] | Bliss excess [6] | Bliss excess [7] | Bliss excess [8] | Bliss excess [9] | Bliss excess [10] | Bliss excess [11] | Bliss excess [12] | Bliss excess [13] | Bliss excess [14] | Bliss excess [15] | Bliss excess [16] | Bliss excess [17] | Bliss excess [18] | Bliss excess [19] |
| --- | --- | --- | --- | --- | --- | --- | --- | --- | --- | --- | --- | --- | --- | --- | --- | --- | --- | --- | --- | --- |
| Cn1cnc2c(F)c(Nc3ccc(Br)cc3Cl)c(C(=O)NOCCO)cc21 [Selumetinib] + C[C@@H]1COCCN1C2=NC(=NC(=C2)C3(CC3)[S@](=N)(=O)C)C4=C5C=CNC5=NC=C4 [AZD6738] (first compound max 10 µM, 7x7, partner max 10 µM) | -0.0481 | -0.0055 | -0.0373 | -0.0181 | -0.0014 | -0.0274 | -0.0303 | 0.0464 | -0.0031 | 0.0257 | -0.0213 | -0.0346 | 0.0926 | -0.0369 | -0.101 | -0.0653 | 0.0539 | -0.0096 | 0.0406 | 0.0106 |
| Cn1cnc2c(F)c(Nc3ccc(Br)cc3Cl)c(C(=O)NOCCO)cc21 [Selumetinib] + CC(C)n1c(=O)n(C)c2cnc3cc(F)c(-c4ccc(OCCCN5CCCCC5)nc4)cc3c21 [AZD1390] (first compound max 10 µM, 7x7, partner max 0.3 µM) | 0.0335 | -0.0339 | -0.0506 | 0.0535 | -0.0378 | -0.0741 | -0.0685 | 0.0076 | -0.0446 | -0.0623 | 0.0043 | -0.0156 | -0.0329 | -0.0719 | -0.0514 | -0.0483 | -0.0099 | -0.0273 | -0.0616 | -0.0164 |
| COc1nnc2ccc(N3CCC(c4ccc(OCCN5CCN(C)C(=O)[C@H]5C)cc4)CC3)nn12 [AZD5153] + Cc1c2c(nn1C)CSCc1cc(n(C)n1)CSc1cc(c3ccccc3c1)OCCCc1c(C(=O)O)n(C)c3c-2c(Cl)ccc13 [AZD5991] (first compound max 1 µM, 7x7, partner max 1 µM) | -0.044 | -0.0592 | 0.0582 | 0.0492 | -0.0231 | -0.0106 | -0.0482 | 0.0352 | 0.0176 | 0.0312 | -0.0274 | 0.052 | -0.03 | -0.0001 | -0.0412 | 0.0012 | -0.0402 | 0.0114 | -0.058 | 0.041 |
| Cc1c2c(nn1C)CSCc1cc(n(C)n1)CSc1cc(c3ccccc3c1)OCCCc1c(C(=O)O)n(C)c3c-2c(Cl)ccc13 [AZD5991] + C[C@@H]1COCCN1C2=NC(=NC(=C2)C3(CC3)[S@](=N)(=O)C)C4=C5C=CNC5=NC=C4 [AZD6738] (first compound max 1 µM, 7x7, partner max 10 µM) | -0.0297 | 0.0152 | -0.0999 | 0.0318 | 0.012 | -0.0216 | 0.0201 | 0.044 | 0.0135 | -0.0341 | 0.0264 | 0.105 | 0.0217 | 0.0008 | -0.0021 | 0.0595 | 0.0199 | 0.0257 | -0.0121 | 0.0316 |
| COc1cccc(OCCCN)c1-c1cc(Nc2cnc(C#N)cn2)n[nH]1 [Prexasertib] + CCc1c2c(nc3ccc(O)cc13)-c1cc3c(c(=O)n1C2)COC(=O)[C@]3(O)CC [SN-38] (first compound max 1 µM, 7x7, partner max 0.3 µM) | -0.0592 | -0.0465 | -0.007 | -0.0075 | -0.0717 | 0.055 | -0.0247 | 0.0876 | 0.0033 | -0.0398 | 0.0231 | -0.0269 | -0.0227 | -0.0107 | -0.0001 | 0.163 | -0.0405 | -0.0675 | 0.0807 | -0.0093 |
| CCN(CCO)CCCOc1ccc2c(Nc3cc(CC(=O)Nc4cccc(F)c4)[nH]n3)ncnc2c1 [AZD2811] + C[C@@H]1COCCN1C2=NC(=NC(=C2)C3(CC3)[S@](=N)(=O)C)C4=C5C=CNC5=NC=C4 [AZD6738] (first compound max 1 µM, 7x7, partner max 10 µM) | -0.008 | -0.0188 | -0.0428 | -0.0208 | -0.0498 | -0.0726 | -0.042 | -0.0574 | -0.012 | -0.0518 | -0.112 | -0.007 | -0.0422 | -0.0118 | -0.0107 | -0.0123 | -0.0436 | -0.0628 | -0.0432 | -0.0499 |
| CCN(CCO)CCCOc1ccc2c(Nc3cc(CC(=O)Nc4cccc(F)c4)[nH]n3)ncnc2c1 [AZD2811] + O=C(c1cc(Cc2n[nH]c(=O)c3ccccc23)ccc1F)N1CCN(C(=O)C2CC2)CC1 [Olaparib] (first compound max 1 µM, 7x7, partner max 10 µM) | -0.0212 | -0.027 | -0.0595 | -0.0029 | 0.0251 | -0.0211 | -0.015 | 0.0257 | 0.0242 | 0.0174 | 0.0006 | 0.0231 | -0.003 | -0.0339 | -0.0348 | 0.0123 | 0.0155 | 0.0082 | -0.0168 | -0.0525 |
| CN(C)CCCOc1ccc(-c2ccc3ncc4c(c3c2)n(C2CCOCC2)c(=O)n4C)cn1 [AZD0156] + C=CCn1c(=O)c2cnc(Nc3ccc(N4CCN(C)CC4)cc3)nc2n1-c1cccc(C(C)(C)O)n1 [AZD1775] (first compound max 1 µM, partner max 1 µM) | -0.0274 | -0.0599 | -0.014 | 0.0118 | -0.0242 | -0.0699 | -0.0216 | 0.057 | 0.0196 | -0.0734 | -0.0472 | 0.0408 | -0.0593 | -0.0306 | -0.0296 | -0.0131 | 0.0551 | -0.051 | -0.0548 | -0.0205 |
| Cc1c2c(nn1C)CSCc1cc(n(C)n1)CSc1cc(c3ccccc3c1)OCCCc1c(C(=O)O)n(C)c3c-2c(Cl)ccc13 [AZD5991] + CCN(CCO)CCCOc1ccc2c(Nc3cc(CC(=O)Nc4cccc(F)c4)[nH]n3)ncnc2c1 [AZD2811] (first compound max 1 µM, 7x7, partner max 1 µM) | 0.0579 | -0.0109 | -0.0122 | -0.0126 | 0.0293 | -0.0072 | 0.0096 | 0.0679 | 0.0101 | -0.0061 | -0.0466 | 0.0466 | 0.0512 | -0.0046 | 0.0109 | 0.111 | 0.0065 | 0.0416 | 0.0261 | -0.0282 |
| COc1cccc2c1C(=O)c1c(O)c3c(c(O)c1C2=O)C[C@@](O)(C(=O)CO)C[C@@H]3O[C@H]1C[C@H](N)[C@H](O)[C@H](C)O1 [Doxorubicin] + Cc1cc2ncnn2cc1Nc1ncc2c(n1)n(C1CCOCC1)c(=O)n2C [AZD7648] (first compound max 1 µM, 7x7, partner max 10 µM) | -0.018 | 0.0096 | 0.0281 | 0.135 | 0.13 | -0.0182 | 0.0835 | 0.0344 | 0.111 | 0.0259 | 0.0337 | 0.0605 | 0.0195 | 0.137 | -0.0577 | 0.0072 | 0.0669 | 0.0577 | 0.0231 | 0.0857 |
| NC1(C(=O)N[C@@H](CCO)c2ccc(Cl)cc2)CCN(c2ncnc3[nH]ccc23)CC1 [Capivasertib] + Cn1cnc2c(F)c(Nc3ccc(Br)cc3Cl)c(C(=O)NOCCO)cc21 [Selumetinib] (first compound max 10 µM, 7x7, partner max 10 µM) | 0.0675 | 0.0563 | 0.0654 | 0.0752 | -0.0041 | 0.0372 | 0.0071 | -0.0654 | -0.0008 | 0.0695 | 0.0132 | 0.0004 | -0.0368 | 0.0842 | -0.0124 | -0.0098 | 0.0107 | 0.0183 | -0.0264 | 0.0381 |
| COc1cccc(OCCCN)c1-c1cc(Nc2cnc(C#N)cn2)n[nH]1 [Prexasertib] + CN(C)CCCOc1ccc(-c2ccc3ncc4c(c3c2)n(C2CCOCC2)c(=O)n4C)cn1 [AZD0156] (first compound max 1 µM, 7x7, partner max 1 µM) | -0.0593 | 0.0105 | 0.003 | 0.0108 | -0.0098 | -0.0768 | -0.0317 | -0.0121 | 0.0008 | -0.0265 | -0.0429 | 0.0475 | -0.008 | -0.0249 | -0.0285 | -0.0189 | -0.0115 | -0.0235 | 0.0519 | -0.0838 |
| NC1(C(=O)N[C@@H](CCO)c2ccc(Cl)cc2)CCN(c2ncnc3[nH]ccc23)CC1 [Capivasertib] + CC(C)n1c(=O)n(C)c2cnc3cc(F)c(-c4ccc(OCCCN5CCCCC5)nc4)cc3c21 [AZD1390] (first compound max 10 µM, 7x7, partner max 0.3 µM) | -0.0472 | -0.0451 | -0.0296 | -0.0083 | -0.0766 | -0.0311 | -0.0645 | -0.0275 | -0.039 | -0.0346 | -0.0206 | -0.0334 | -0.0899 | -0.0393 | -0.123 | -0.0502 | -0.0103 | -0.0676 | -0.055 | -0.0482 |
